Experiments:
JMJD2C = JMJD2C (Homo sapiens (Human), UniProt Q9H3R0); test: In vitro enzyme inhibition assay for JMJD2C activity (TR-FRET); assay type: biochemical
Description: This assay determines the ability of a test compound to inhibit JMJD2C demethylase activity. Baculovirus expressed JMJD2C (GenBank Accession #BC143571, AA 2-372) was purchased from BPS Bioscience (Cat#50105).
The ability of test compounds to inhibit the activity of JMJD2C was determined in 384-well plate format under the following reaction conditions: 0.3 nM JMJD2C, 300 nM H3K9me3-biotin labeled peptide (Anaspec cat #64360), 2 μM alpha-ketoglutaric acid in assay buffer of 50 mM HEPES, pH7.3, 0.005% Brij35, 0.5 mM TCEP, 0.2 mg/ml BSA, 50 μM sodium L-ascorbate, and 2 μM ammonium iron(II) sulfate. Reaction product was determined quantitatively by TR-FRET after the addition of detection reagent Phycolink Streptavidin-allophycocyanin (Prozyme) and Europium-anti-di-methylated histone H3 lysine 9 (H3K9me2) antibody (PerkinElmer) in the presence of 5 mM EDTA in LANCE detection buffer (PerkinElmer) at a final concentration of 50 nM and 1 nM, respectively.
The assay reaction was initiated by the following: 2 μl of the mixture of 900 nM H3K9me3-biotin labeled peptide and 6 μM alpha-ketoglutaric acid with 2 μl of 11-point serial diluted inhibitor in 3% DMSO were added to each well of the plate, followed by the addition of 2 μl of 0.9 nM JMJD2C to initiate the reaction. The reaction mixture was incubated at room temperature for 30 minutes, and terminated by the addition of 6 μl of 5 mM EDTA in LANCE detection buffer containing 100 nM Phycolink Streptavidin-allophycocyanin and 2 nM Europium-anti-H3K9me2 antibody. Plates were read by EnVisionMultilabel Reader in TR-FRET mode (excitation at 320 nm, emission at 615 nm and 665 nm) after 1 hour incubation at room temperature. A ratio was calculated (665/615) for each well and fitted to determine inhibition constant (IC50).

[1] = tested on: KYSE-150 esophageal carcinoma cell line; test: In vitro cell-based assay: cellular proliferation via BrdU incorporation (ELISA); set-up: species or system human; settings: KYSE-150, 168 hours compound incubation
Description: The primary cellular assay for JMJD2C inhibition is an assay which measures cellular proliferation via Bromodeoxyuridine (BrdU) incorporation after 168 hours of compound incubation. Cell lines tested include the JMJD2C gene amplified cell line KYSE-150. This is a quantitative ELISA assay measuring DNA incorporation of BrdU during S-phase as a direct readout of cellular proliferation.
Assay Principle: This is a colorimetric immunoassay for the quantification of cell proliferation. Cells treated for 168 hours with test compounds are assayed for their ability to go through S-phase as a measure of their proliferative potential.
Assay Method: The human KYSE-150 (SMAD4 mut, TP53 mut) esophageal carcinoma cell line was seeded at 2,000 cells/well on a 96-well tissue culture treated plate. After an overnight incubation, cells were treated with compound in an 11-point dilution series with final concentrations ranging from 100 μM to 2 nM. Cells were then incubated in the presence of compound for 168 hours. After compound incubation the cells were assayed using a BrdU Cell Proliferation ELISA (Roche). The cells were first incubated with BrdU labeling reagent for 2 hours. After 2 hours, the BrdU incorporated cells were fixed and denatured, probed with an anti-BrdU-Peroxidase antibody for 1.5 hours and washed. Finally, a tetramethylbenzidine peroxidase substrate was added to each well for 15 minutes followed by a H2SO4 stop solution. The plate was read at 450 nm, and the raw optical density data was transferred into XLFit (IDBS) for IC50 calculation using the formula: fit=(D+((Vmax*(x^n))/((x^n)+(Km^n))))

JMJD2C, sequence (Q9H3R0 2-372): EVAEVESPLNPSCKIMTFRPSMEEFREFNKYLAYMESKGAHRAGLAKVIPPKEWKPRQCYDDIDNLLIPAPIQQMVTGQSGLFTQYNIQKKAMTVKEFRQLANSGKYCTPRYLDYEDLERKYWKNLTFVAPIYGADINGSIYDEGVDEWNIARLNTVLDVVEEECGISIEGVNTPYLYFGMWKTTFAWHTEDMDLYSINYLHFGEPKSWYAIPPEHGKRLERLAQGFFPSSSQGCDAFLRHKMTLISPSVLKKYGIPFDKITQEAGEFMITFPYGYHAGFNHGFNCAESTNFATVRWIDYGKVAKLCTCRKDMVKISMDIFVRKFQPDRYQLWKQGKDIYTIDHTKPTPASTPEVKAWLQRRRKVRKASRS

Compound	IC50 (JMJD2C) [nM]	IC50 ([1]; Homo sapiens) [nM]	IC50 [1] [nM]
O=C(O)c1ccncc1NC[C@@H]1CCOc2cc(Sc3cccc(F)c3)ccc21 [Example 53, 3-({[(4R)-7-[(3-fluorophenyl)sulfanyl]-3,4-dihydro-2H-1-benzopyran-4-yl]methyl}amino)pyridine-4-carboxylic acid]	100 to 1000	100 to 1000	
CN(c1ccc(C2CC2)cc1)c1ccc2c(c1)CCC[C@H]2CNc1cnccc1C(=O)O [Example 161, 3-({[(1R)-6-[(4-cyclopropylphenyl)(methyl)amino]-1,2,3,4-tetrahydronaphthalen-1-yl]methyl}amino)pyridine-4-carboxylic acid]	1000 to 10000	≤ 100	
O=C(O)c1ccncc1NC[C@@H]1CCOc2cc(C3(c4ccccc4)CC3)ccc21 [Example 203, 3-({[(4R)-7-(1-phenylcyclopropyl)-3,4-dihydro-2H-1-benzopyran-4-yl]methyl}amino)pyridine-4-carboxylic acid]	100 to 1000	100 to 1000	
N#Cc1ccccc1-c1ccc2c(c1)OCC[C@H]2CNc1cnccc1C(=O)O [Example 124, 3-({[(4R)-7-(2-cyanophenyl)-3,4-dihydro-2H-1-benzopyran-4-yl]methyl}amino)pyridine-4-carboxylic acid]	100 to 1000	1000 to 10000	
CN(c1ccc(-n2cccn2)cc1)c1ccc2c(c1)CCC[C@H]2CNc1cnccc1C(=O)O [Example 188, 3-({[(1R)-6-{methyl[4-(1H-pyrazol-1-yl)phenyl]amino}-1,2,3,4-tetrahydronaphthalen-1-yl]methyl}amino)pyridine-4-carboxylic acid]	100 to 1000	≤ 100	
Cc1ccccc1Sc1ccc2c(c1)CCC[C@H]2CNc1cnccc1C(=O)O [Example 71, 3-({[(1R)-6-[(2-methylphenyl)sulfanyl]-1,2,3,4-tetrahydronaphthalen-1-yl]methyl}amino)pyridine-4-carboxylic acid]	1000 to 10000	100 to 1000	
COc1ccccc1-c1ccc2c(c1)OCC[C@H]2CNc1cnccc1C(=O)O [Example 116, 3-({[(4R)-7-(2-methoxyphenyl)-3,4-dihydro-2H-1-benzopyran-4-yl]methyl}amino)pyridine-4-carboxylic acid]	100 to 1000	100 to 1000	
CN(c1ccc2c(c1)COC2)c1ccc2c(c1)OCC[C@H]2CNc1cnccc1C(=O)O [Example 127, 3-({[(4R)-7-[(1,3-dihydro-2-benzofuran-5-yl)(methyl)amino]-3,4-dihydro-2H-1-benzopyran-4-yl]methyl}amino)pyridine-4-carboxylic acid]	100 to 1000	100 to 1000	
C[C@H](O)c1ccc(N(C)c2ccc3c(c2)CCC[C@H]3CNc2cnccc2C(=O)O)cc1 (single isomer, unassigned) [Example 169]		≤ 100	
O=C(O)c1ccncc1NC[C@H]1CCCc2cc(S(=O)(=O)c3ccccc3)ccc21 [Example 81, 3-({[(1S)-6-(benzenesulfonyl)-1,2,3,4-tetrahydronaphthalen-1-yl]methyl}amino)pyridine-4-carboxylic acid]	100 to 1000		
O=C(O)c1ccncc1NCC1CCCc2cc(Oc3ccccc3C(F)(F)F)ccc21 (stereo not shown) [Example 62, 3-[({6-[2-(trifluoromethyl)phenoxy]-1,2,3,4-tetrahydronaphthalen-1-yl}methyl)amino]pyridine-4-carboxylic acid]	1000 to 10000		
CCc1ccc2c(c1)CCC[C@@H]2CNc1cnccc1C(=O)O [Example 90, 3-({[(1S)-6-ethyl-1,2,3,4-tetrahydronaphthalen-1-yl]methyl}amino)pyridine-4-carboxylic acid]	100 to 1000		
COc1cc2c(cc1F)[C@@H](CNc1cnccc1C(=O)O)CCC2 [Example 96, 3-({[(1S)-7-fluoro-6-methoxy-1,2,3,4-tetrahydronaphthalen-1-yl]methyl}amino)pyridine-4-carboxylic acid]	100 to 1000		
COc1cc(F)ccc1-c1ccc2c(c1)OCC[C@H]2CNc1cnccc1C(=O)O [Example 118, 3-({[(4R)-7-(4-fluoro-2-methoxyphenyl)-3,4-dihydro-2H-1-benzopyran-4-yl]methyl}amino)pyridine-4-carboxylic acid]	100 to 1000		

More lines, now with the values ahead:

IC50 (JMJD2C) [nM]	IC50 ([1]; Homo sapiens) [nM]	IC50 [1] [nM]	Compound
100 to 1000	100 to 1000		COc1cc2c(cc1C)C(CNc1cnccc1C(=O)O)CCC2 (stereo not shown) [Example 94, 3-{[(6-methoxy-7-methyl-1,2,3,4-tetrahydronaphthalen-1-yl)methyl]amino}pyridine-4-carboxylic acid]
1000 to 10000	100 to 1000		O=C(O)c1ccncc1NCC1CCCc2cc(N3CCc4ccccc43)ccc21 (stereo not shown) [Example 5, 3-({[6-(2,3-dihydro-1H-indol-1-yl)-1,2,3,4-tetrahydronaphthalen-1-yl]methyl}amino)pyridine-4-carboxylic acid]
100 to 1000	≤ 100		CN(c1ccc(N2CCCC2)cc1)c1ccc2c(c1)OCC[C@H]2CNc1cnccc1C(=O)O [Example 179, 3-({[(4R)-7-{methyl[4-(pyrrolidin-1-yl)phenyl]amino}-3,4-dihydro-2H-1-benzopyran-4-yl]methyl}amino)pyridine-4-carboxylic acid]
100 to 1000	≤ 100		CN(c1ccc2c(c1)OCC[C@H]2CNc1cnccc1C(=O)O)c1ccccc1F [Example 19, 3-({[(4R)-7-[(2-fluorophenyl)(methyl)amino]-3,4-dihydro-2H-1-benzopyran-4-yl]methyl}amino)pyridine-4-carboxylic acid]
100 to 1000		1000 to 10000	3-({[(1R)-6-[cyclopentyl(methyl)amino]-1,2,3,4-tetrahydronaphthalen-1-yl]methyl}amino)pyridine-4-carboxylic acid [Example 133]
	≤ 100		C[C@@H](O)c1ccc(N(C)c2ccc3c(c2)CCC[C@H]3CNc2cnccc2C(=O)O)cc1 (single isomer, unassigned) [Example 168]
	1000 to 10000		O=C(O)c1ccncc1NC[C@@H]1CCOc2cc(C3CCCCC3)ccc21 [Example 35, 3-({[(4R)-7-cyclohexyl-3,4-dihydro-2H-1-benzopyran-4-yl]methyl}amino)pyridine-4-carboxylic acid]
100 to 1000			COc1ccc(Cl)c(-c2ccc3c(c2)OCC[C@H]3CNc2cnccc2C(=O)O)c1 [Example 107, 3-({[(4R)-7-(2-chloro-5-methoxyphenyl)-3,4-dihydro-2H-1-benzopyran-4-yl]methyl}amino)pyridine-4-carboxylic acid]
1000 to 10000			O=C(O)c1ccncc1NC[C@H]1CCCc2cc(Sc3ccccc3F)ccc21 [Example 72, 3-({[(1S)-6-[(2-fluorophenyl)sulfanyl]-1,2,3,4-tetrahydronaphthalen-1-yl]methyl}amino)pyridine-4-carboxylic acid]
1000 to 10000			O=C(O)c1ccncc1NC[C@@H]1CCCc2cc(N3CCCCc4ccccc43)ccc21 [Example 162, 3-({[(1R)-6-(2,3,4,5-tetrahydro-1H-1-benzazepin-1-yl)-1,2,3,4-tetrahydronaphthalen-1-yl]methyl}amino)pyridine-4-carboxylic acid]
100 to 1000			Cc1ccc(S(=O)(=O)c2ccc3c(c2)CCC[C@@H]3CNc2cnccc2C(=O)O)cc1 [Example 83, 3-({[(1S)-6-(4-methylbenzenesulfonyl)-1,2,3,4-tetrahydronaphthalen-1-yl]methyl}amino)pyridine-4-carboxylic acid]
1000 to 10000			Cc1c(F)cccc1-c1ccc2c(c1)OCC[C@@H]2CNc1cnccc1C(=O)O [Example 41, 3-({[(4S)-7-(3-fluoro-2-methylphenyl)-3,4-dihydro-2H-1-benzopyran-4-yl]methyl}amino)pyridine-4-carboxylic acid]
1000 to 10000			Cc1ccccc1Sc1ccc2c(c1)OCC[C@@H]2CNc1cnccc1C(=O)O [Example 50, 3-({[(4S)-7-[(2-methylphenyl)sulfanyl]-3,4-dihydro-2H-1-benzopyran-4-yl]methyl}amino)pyridine-4-carboxylic acid]
